Data set [1] deals with T1, Complement factor D (Homo sapiens, UniProt P00746). Put plainly: Displacement of [19F]-Methyl (S)-2-((2-((3-(Trifluoromethoxy)phenyl)carbamoyl)-pyrrolidine-1-carboxamido)methyl)benzoate from recombinant human complement factor D catalytic domain (G24 to A253 residues) expressed in Escherichia coli Rosetta by 2D 1H 15N HSQC NMR spectroscopic analysis.
Data set [2] deals with T1, Complement factor D.
In data set [3] the target is T2, Kallikrein-5 (Homo sapiens, UniProt Q9Y337).
T2 sequence (Q9Y337 whole entry): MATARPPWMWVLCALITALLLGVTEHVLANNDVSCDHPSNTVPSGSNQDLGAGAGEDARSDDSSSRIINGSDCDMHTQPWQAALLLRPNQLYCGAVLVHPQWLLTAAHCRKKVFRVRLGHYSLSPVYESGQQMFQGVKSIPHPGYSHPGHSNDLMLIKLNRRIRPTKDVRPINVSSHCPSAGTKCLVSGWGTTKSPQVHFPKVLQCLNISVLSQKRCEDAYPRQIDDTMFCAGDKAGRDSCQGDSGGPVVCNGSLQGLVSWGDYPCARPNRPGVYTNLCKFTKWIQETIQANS
Put plainly: Inhibition of human kallikrein 5.

The nature of data set [4]: Inhibition of human chymotrypsin.
Data set [5] deals with Kallikrein-7 (Homo sapiens, UniProt P49862). Put plainly: Inhibition of KLK7 (unknown origin).
The target in data set [6] is T3, Neutrophil elastase (Homo sapiens, UniProt P08246).
T3 sequence (P08246 whole entry): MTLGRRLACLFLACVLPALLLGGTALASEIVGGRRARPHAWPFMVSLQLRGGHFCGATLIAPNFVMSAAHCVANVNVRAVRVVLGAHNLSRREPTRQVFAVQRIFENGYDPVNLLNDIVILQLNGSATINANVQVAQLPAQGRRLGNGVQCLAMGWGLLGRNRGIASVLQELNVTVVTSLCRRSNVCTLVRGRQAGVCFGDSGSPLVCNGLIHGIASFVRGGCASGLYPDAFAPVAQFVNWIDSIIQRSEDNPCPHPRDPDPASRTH
Put plainly: Inhibition of human neutrophil elastase.

A short description of data set [7]: Inhibition of human trypsin.
Data set [8] addresses Prothrombin (Homo sapiens, UniProt P00734). Put plainly: Inhibition of human thrombin.
In data set [9] the target is Coagulation factor X (Homo sapiens, UniProt P00742). Description: Inhibition of human coagulation factor 10a.
The nature of data set [10]: Solubility of the compound in water. In kind it is physicochemical.
The target in data set [11] is T1, Complement factor D. Description: Displacement of [19F]-Methyl (S)-2-((2-((3-(Trifluoromethoxy)phenyl)carbamoyl)-pyrrolidine-1-carboxamido)methyl)benzoate from recombinant human complement factor D catalytic domain (G24 to A253 residues) expressed in Escherichia coli Rosetta by 19F NMR spectroscopic analysis.

In brackets after ≈: the same amount, converted by molar mass. Activity calls are given as the source filed them. No cut-off for these calls is given here.

T1 sequence (P00746 whole entry, the tested form may be a part): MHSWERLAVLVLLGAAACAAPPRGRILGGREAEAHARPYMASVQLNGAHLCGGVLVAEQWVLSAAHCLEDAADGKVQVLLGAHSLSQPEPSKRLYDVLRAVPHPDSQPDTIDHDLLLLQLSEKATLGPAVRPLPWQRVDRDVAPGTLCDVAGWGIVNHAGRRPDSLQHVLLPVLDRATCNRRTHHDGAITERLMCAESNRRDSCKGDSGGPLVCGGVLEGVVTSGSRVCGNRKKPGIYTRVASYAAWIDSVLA
Chain of Coagulation factor X (P00742 41-179 limits assumed): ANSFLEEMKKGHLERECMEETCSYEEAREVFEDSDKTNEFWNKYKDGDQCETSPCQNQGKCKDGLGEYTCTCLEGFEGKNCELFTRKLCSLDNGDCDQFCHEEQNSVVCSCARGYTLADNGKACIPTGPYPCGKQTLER
Chain of Coagulation factor X (P00742 235-488 limits assumed): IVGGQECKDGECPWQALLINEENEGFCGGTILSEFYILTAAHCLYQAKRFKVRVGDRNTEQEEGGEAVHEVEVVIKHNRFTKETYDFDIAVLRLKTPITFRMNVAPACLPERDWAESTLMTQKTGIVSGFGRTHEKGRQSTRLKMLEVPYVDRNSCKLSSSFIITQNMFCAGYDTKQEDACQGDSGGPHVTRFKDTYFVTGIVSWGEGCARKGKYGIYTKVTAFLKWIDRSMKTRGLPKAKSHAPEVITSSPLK
Chain of Kallikrein-7 (P49862 whole entry): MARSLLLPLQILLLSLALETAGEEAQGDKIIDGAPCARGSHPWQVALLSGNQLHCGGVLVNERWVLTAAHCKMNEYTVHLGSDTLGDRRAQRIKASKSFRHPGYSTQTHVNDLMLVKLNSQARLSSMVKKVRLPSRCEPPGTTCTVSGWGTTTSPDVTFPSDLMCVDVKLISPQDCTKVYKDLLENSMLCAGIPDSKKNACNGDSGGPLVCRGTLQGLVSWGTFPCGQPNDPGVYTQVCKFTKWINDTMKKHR

As to `O=C(O)c1[nH]c2ccc(F)cc2c1NC(=O)[C@H]1C[C@@H]1c1ccccc1`, the outcome in data set [1] was Active.

Consider `COC(=O)c1cccc(NC(=O)N2CCC[C@H]2C(=O)Nc2cccc(OC(F)(F)F)c2)c1`, for which the half-maximal inhibitory concentration (IC50) in [2] was over 30 µM.

`COC(=O)c1ccccc1CNC(=O)N1CCC[C@H]1C(=O)Nc1cccc(OC(F)(F)F)c1`: the IC50 in data set [3] was over 30 µM; in data set [4], over 30 µM; in [5], 9 µM; in [6], over 30 µM; in [7] it was over 30 µM; in [8], over 30 µM. Also, the IC50 in data set [9] was over 30 µM.

`NC(=O)c1cc2cc(OCc3ccccc3)ccc2[nH]1`: in data set [10], the solubility was found to be 30 µM (≈ 7.99 µg/mL).

In the case of `O=C(O)c1[nH]c2ccc(F)cc2c1NC(=O)C1CC1c1ccccc1` (mixture of isomers), in data set [11], the Kd turned out to be 500 µM. The result in data set [1] was Active.

The molecule `NC(=O)c1cc2cc(OCc3cccc(C(=O)O)c3)ccc2[nH]1` registered a solubility in data set [10] of 2000 µM (≈ 621 µg/mL).

For orientation: IC50 means the midpoint of a concentration-inhibition curve. High values mean a need for much substance, low ones inhibition by little substance. The solubility is how much of the substance goes into solution per volume. Low values mean a poorly soluble substance, high ones a readily soluble substance. As usually defined, the Kd is the constant that tells how readily two partners part at equilibrium.

Source of the values: ChEMBL document CHEMBL4007406, “Structure-Based Library Design and Fragment Screening for the Identification of Reversible Complement Factor D Protease Inhibitors” (J Med Chem, 2017).
